Results as given in patent US20120225097A1, “PIPERAZINECARBOXAMIDE DERIVATIVE USEFUL AS A MODULATOR OF FATTY ACID AMIDE HYDROLASE (FAAH)” (priority 2009, published 2012).
Structures can show the parent of a compound that is named as a salt.

Tested on: heart muscle
Assay: Assay Method 4: rat screening toxicity protocol
Type: in vivo
Details: 300 mg/kg daily oral, up to 4 days, male rats
Procedure: Rat Screening Toxicity Protocol
Male Crl:CD® (SD) rats approximately 8 weeks of age and weighing approximately 200 to 350 grams at initiation of dosing, were supplied by Charles River Laboratories, Hollister, Calif. Rats were individually housed in solid bottom plastic cages with 0.25 inch Cobb Bedding. Study rooms were maintained on a 12-hour light/dark cycle, with a temperature range of 64 to 79° F., and a relative humidity range of 30 to 70%. Rats were fed ad libitum (except where noted) with Rodent Diet 5008 supplied by PMI® Nutrition International, Richmond, Ind. Water was provided ad libitum by an automatic watering system and/or water bottles. The animals were quarantined for at least 5 days (prior to treatment period). Rats were selected on the basis of predose evaluations and randomly assigned to groups using a computer-generated randomization method based on body weight.
A vehicle treated group was dosed to match the highest dose volume (mL/kg) used. The test compound was administered orally daily. Test compounds were stored at room temperature. 4-({3-[(4-chlorophenyl)oxy]phenyl}methyl)-N-pyridin-3-ylpiperazine-1-carboxamide was dosed in solution using 20% cyclodextrin as the vehicle. N-pyridin-3-yl-4-{3-[4-(trifluoromethyl)phenoxy]benzyl}piperazine-1-carboxamide bis-hydrochloride dihydrate was dosed in solution using water as the vehicle. Rats in the vehicle treated and test article treated were dosed for up to 4 days. Mortality checks were performed at least once a day on all animals pre-dose and post-dose. Clinical observations were performed at least once during the pre-dose period. Clinical observations were recorded prior to dosing, at least once after daily dosing, and prior to scheduled necropsy for animals assessed for toxicology. Body Weights were determined at least once during the pre-dose period, prior to the first dose, once during dose administration and once after the last dose, and once prior to necropsy for tissue body weight ratios. […] Observations were recorded at necropsy and tissue trimming. […] Clinical pathology was not determined on these animals. […]

SMILES	lesions in heart muscle	lesions in heart muscle (listed as N-pyridin-3-yl-4-{3-[4-(trifluoromethyl)phenoxy]benzyl}piperazine-1-carboxamide , bis-hydrochloride dihydrate)	lesions in heart muscle (listed as N-pyridin-3-yl-4-{3-[4-(trifluoromethyl)phenoxy]benzyl}piperazine-1-carboxamide, bis-hydrochloride dihydrate)
O=C(Nc1cccnc1)N1CCN(Cc2cccc(Oc3ccc(Cl)cc3)c2)CC1 [4-({3-[(4-Chlorophenyl)oxy]phenyl}methyl)-N-pyridin-3-ylpiperazine-1-carboxamide]	developed lesions in heart muscle	–	–
O=C(Nc1cccnc1)N1CCN(Cc2cccc(Oc3ccc(C(F)(F)F)cc3)c2)CC1 [Example 1, N-Pyridin-3-yl-4-{3-[4-(trifluoromethyl)phenoxy]benzyl}piperazine-1-carboxamide, bis-hydrochloride dihydrate]	–	absent	lacked such lesions
